# Assay results from paper PMC5908784, “Extracellular loops 2 and 3 of the calcitonin receptor selectively modify agonist binding and efficacy” (Biochemical Pharmacology, 2018).
# Changes are numbered by the printed parent chain. Where a SMILES comes first, the peptide text is derived from it. Bridges are numbered along the chain shown (N, C = ends).
# Legend:
# Type in all cases: cell-based
# hCTR F359A [1] = molecular target: T1, hCTR F359A (Homo sapiens, UniProt P30988, F359A); assay: IP1 accumulation; conditions: for Emax: read-out: Emax (% WT), SEM
# T1 construct: expressed in transfected cells
# T1 sequence (P30988 25-474 F359A): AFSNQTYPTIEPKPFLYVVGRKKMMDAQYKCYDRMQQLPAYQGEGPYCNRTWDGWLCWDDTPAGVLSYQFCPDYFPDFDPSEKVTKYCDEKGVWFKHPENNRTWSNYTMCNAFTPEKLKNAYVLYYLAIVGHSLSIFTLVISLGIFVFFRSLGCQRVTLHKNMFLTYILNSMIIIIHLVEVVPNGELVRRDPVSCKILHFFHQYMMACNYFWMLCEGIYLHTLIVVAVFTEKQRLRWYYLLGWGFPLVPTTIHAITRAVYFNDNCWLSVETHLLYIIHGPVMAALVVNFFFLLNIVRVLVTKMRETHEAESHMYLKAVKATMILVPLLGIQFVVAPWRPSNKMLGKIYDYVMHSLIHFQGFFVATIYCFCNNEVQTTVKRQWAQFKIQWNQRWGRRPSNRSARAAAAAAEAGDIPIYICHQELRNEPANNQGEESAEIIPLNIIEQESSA
# In short: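 Cells bearing the mutant calcitonin receptor were plated overnight, then stimulated with increasing ligand concentrations for 60 min in the presence of LiCl. Endogenous IP1 was read by HTRF after lysis.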
# hCTR Y374A = molecular target: T2, hCTR Y374A (Homo sapiens, UniProt P30988, Y374A); assay: cAMP accumulation; conditions: mean ± S.E.M.; for Emax: cAMP maximal response, SEM; for EC50: cAMP, CV1-FlpIn cells, 30 min, IBMX
# T2 construct: c-Myc (N); expressed in transfected cells
# T2 sequence (P30988 25-474 Y374A): T1 sequence (P30988 25-474 F359A) with A335F, Y350A
# Protocol: (§1) Cells (2.5 × 10^4 cells/well) were seeded into 96-well plates and incubated overnight. Cells were stimulated with increasing concentrations of ligands for 30 min in the presence of IBMX. The liquid was discarded, changed to absolute ethanol and volatilized to dryness at room temperature. […] Data were normalized to the response of 100 μM forskolin.
# (§2) Data were corrected for radioligand occupancy using the Cheng-Prusoff equation in Prism; as such data are reported as pKi. Emax and EC50 were estimated from concentration-response curves using with a 3-parameter logistic equation in Prism (v7). These values are a composite of functional affinity, efficacy and stimulus response coupling. […] Significance was accepted at P < 0.05.
# hCTR R281A = molecular target: T3, hCTR R281A (Homo sapiens, UniProt P30988, R281A); assay: cAMP accumulation; conditions: mean ± S.E.M.; for Emax: cAMP maximal response, SEM; for EC50: cAMP, CV1-FlpIn cells, 30 min, IBMX
# T3 construct: expressed in transfected cells
# T3 sequence (P30988 25-474 R281A): T1 sequence (P30988 25-474 F359A) with R257A, A335F
# Protocol: as §1, §2
# hCTR Y284A = molecular target: T4, hCTR Y284A (Homo sapiens, UniProt P30988, Y284A); assay: cAMP accumulation; conditions: mean ± S.E.M.; for Emax: cAMP maximal response, SEM; for EC50: cAMP, CV1-FlpIn cells, 30 min, IBMX
# T4 construct: expressed in transfected cells
# T4 sequence (P30988 25-474 Y284A): T1 sequence (P30988 25-474 F359A) with Y260A, A335F
# Protocol: as §1, §2
# hCTR F359A [2] = molecular target: T1, hCTR F359A; assay: cAMP accumulation; conditions: mean ± S.E.M.; for Emax: cAMP maximal response, SEM; for EC50: cAMP, CV1-FlpIn cells, 30 min, IBMX
# Protocol: as §1, §2
# hCTR K366A = molecular target: T5, hCTR K366A (Homo sapiens, UniProt P30988, K366A); assay: cAMP accumulation; conditions: mean ± S.E.M.; for Emax: cAMP maximal response, SEM; for EC50: cAMP, CV1-FlpIn cells, 30 min, IBMX
# T5 construct: c-Myc (N); expressed in transfected cells
# T5 sequence (P30988 25-474 K366A): T1 sequence (P30988 25-474 F359A) with A335F, K342A
# Protocol: as §1, §2
EC50 (hCTR Y374A),EC50 (hCTR R281A),EC50 (hCTR Y284A),EC50 (hCTR F359A [2]),EC50 (hCTR K366A),"EC50 (hCTR F359A [1]; F359A, IP1, CV1-FlpIn cells, 60 min, LiCl, mean ± S.E.M.)","Emax (hCTR F359A [1]; F359A, IP1 maximal response, mean ± S.E.M.)",Structure (SMILES),Emax (hCTR F359A [1]),Emax (hCTR Y374A),Emax (hCTR R281A),Emax (hCTR Y284A),Emax (hCTR F359A [2]),Emax (hCTR K366A)
–,–,–,–,–,–,–,CC[C@H](C)[C@H](NC(=O)[C@H](C)NC(=O)[C@@H](NC(=O)[C@H](CCC(N)=O)NC(=O)[C@@H]1CCCN1C(=O)[C@H](Cc1ccccc1)NC(=O)[C@@H](NC(=O)[C@H](Cc1c[nH]cn1)NC(=O)[C@H](Cc1ccccc1)NC(=O)[C@H](CCCCN)NC(=O)[C@H](CC(N)=O)NC(=O)[C@H](Cc1ccccc1)NC(=O)[C@H](CC(=O)O)NC(=O)[C@H](CCC(N)=O)NC(=O)[C@@H](NC(=O)[C@H](Cc1ccc(O)cc1)NC(=O)[C@@H](NC(=O)CNC(=O)[C@H](CC(C)C)NC(=O)[C@H](CCSC)NC(=O)[C@@H]1CSSC[C@H](N)C(=O)NCC(=O)N[C@@H](CC(N)=O)C(=O)N[C@@H](CC(C)C)C(=O)N[C@@H](CO)C(=O)N[C@@H]([C@@H](C)O)C(=O)N1)[C@@H](C)O)[C@@H](C)O)[C@@H](C)O)[C@@H](C)O)C(=O)NCC(=O)N[C@H](C(=O)NCC(=O)N[C@@H](C)C(=O)N1CCC[C@H]1C(N)=O)C(C)C [hCT],101 ± 9%,83.2 ± 5%,117 ± 15%,103 ± 10%,130 ± 9%,74 ± 3%
25.1 nM,38.9 nM,19.1 nM,18.6 nM,5.37 nM,–,–,CC(C)C[C@H](NC(=O)CNC(=O)[C@H](C)NC(=O)[C@H](CC(C)C)NC(=O)[C@H](CCCNC(=N)N)NC(=O)[C@H](Cc1cnc[nH]1)NC(=O)[C@@H](NC(=O)[C@@H](NC(=O)[C@@H]1CSSC[C@H](NC(=O)[C@H](C)N)C(=O)N[C@@H](CC(=O)O)C(=O)N[C@@H]([C@@H](C)O)C(=O)N[C@@H](C)C(=O)N[C@@H]([C@@H](C)O)C(=O)N1)C(C)C)[C@@H](C)O)C(=O)N[C@@H](CC(C)C)C(=O)N[C@@H](CO)C(=O)N[C@@H](CCCNC(=N)N)C(=O)N[C@@H](CO)C(=O)NCC(=O)NCC(=O)N[C@H](C(=O)N[C@H](C(=O)N[C@@H](CCCCN)C(=O)N[C@@H](CC(N)=O)C(=O)N[C@@H](CC(N)=O)C(=O)N[C@@H](Cc1ccccc1)C(=O)N[C@H](C(=O)N1CCC[C@H]1C(=O)N[C@H](C(=O)N[C@@H](CC(N)=O)C(=O)N[C@H](C(=O)NCC(=O)N[C@@H](CO)C(=O)N[C@@H](CCCCN)C(=O)N[C@@H](C)C(=O)N[C@@H](Cc1ccccc1)C(N)=O)C(C)C)[C@@H](C)O)C(C)C)C(C)C)C(C)C [hαCGRP],–,82 ± 12%,114 ± 25%,139 ± 22%,53 ± 8%,73 ± 13%
0.02 nM,0.646 nM,0.0631 nM,0.162 nM,0.02 nM,13.2 nM,77 ± 6%,CSCC[C@H](NC(=O)CNC(=O)[C@H](CO)NC(=O)[C@H](Cc1ccccc1)NC(=O)[C@H](CCCNC(=N)N)NC(=O)[C@H](Cc1c[nH]cn1)NC(=O)[C@H](Cc1ccccc1)NC(=O)[C@H](CC(N)=O)NC(=O)[C@H](CC(N)=O)NC(=O)[C@H](CC(C)C)NC(=O)[C@H](CC(N)=O)NC(=O)[C@H](CCCNC(=N)N)NC(=O)[C@H](Cc1c[nH]c2ccccc12)NC(=O)[C@H](Cc1ccc(O)cc1)NC(=O)[C@H](C)NC(=O)[C@H](CO)NC(=O)[C@H](CC(C)C)NC(=O)[C@@H](NC(=O)[C@@H]1CSSC[C@H](N)C(=O)N[C@@H](CO)C(=O)N[C@@H](CC(N)=O)C(=O)N[C@@H](CC(C)C)C(=O)N[C@@H](CO)C(=O)N[C@@H]([C@@H](C)O)C(=O)N1)C(C)C)C(=O)NCC(=O)N[C@@H](Cc1ccccc1)C(=O)NCC(=O)N1CCC[C@H]1C(=O)N[C@@H](CCC(=O)O)C(=O)N[C@H](C(=O)N1CCC[C@H]1C(N)=O)[C@@H](C)O [pCT] (H-CSNLSTCVLSAYWRNLNNFHRFSGMGFGPETP-NH2; disulfide 1-7),–,90 ± 9%,147 ± 16%,104 ± 9%,113 ± 8%,80 ± 8%
–,–,–,–,–,–,–,CC(C)C[C@H](NC(=O)[C@H](CC(N)=O)NC(=O)[C@H](CC(N)=O)NC(=O)[C@H](CO)NC(=O)[C@H](CO)NC(=O)[C@H](CCCNC(=N)N)NC(=O)[C@@H](NC(=O)[C@H](CC(C)C)NC(=O)[C@H](Cc1ccccc1)NC(=O)[C@H](CC(N)=O)NC(=O)[C@H](C)NC(=O)[C@H](CC(C)C)NC(=O)[C@H](CCCNC(=N)N)NC(=O)[C@H](CCC(N)=O)NC(=O)[C@@H](NC(=O)[C@H](C)NC(=O)[C@@H]1CSSC[C@H](NC(=O)[C@@H](N)CCCCN)C(=O)N[C@@H](CC(N)=O)C(=O)N[C@@H]([C@@H](C)O)C(=O)N[C@@H](C)C(=O)N[C@@H]([C@@H](C)O)C(=O)N1)[C@@H](C)O)C(C)C)C(=O)NCC(=O)N1CCC[C@H]1C(=O)N[C@H](C(=O)N[C@@H](CC(C)C)C(=O)N1CCC[C@H]1C(=O)N1CCC[C@H]1C(=O)N[C@H](C(=O)N[C@@H](CC(N)=O)C(=O)N[C@H](C(=O)NCC(=O)N[C@@H](CO)C(=O)N[C@@H](CC(N)=O)C(=O)N[C@H](C(=O)N[C@@H](Cc1ccc(O)cc1)C(N)=O)[C@@H](C)O)C(C)C)[C@@H](C)O)C(C)C [rAmy],–,92 ± 9%,63 ± 14%,101 ± 10%,95 ± 9%,71 ± 7%
